The values that follow are results of earlier work, collected in US9913917B2, “Biocompatible fluorescent metal oxide nanoparticles” (VisEn Medical, Inc., priority 2005, dated 2018).

The conditions of the data set: free fluorochrome.

On to Cy5.5, for which the Absorbance max is listed as 675 nm and the εmax was 250,000 M^−1cm^−1.
